Columns and labels:
[1] = biological target: Vascular endothelial growth factor receptor 1 (Homo sapiens, UniProt P17948); format: cell-based; details: huvec; further: in other assays of this panel Not Active means under 50% inhibition at 10 µM
[2] = biological target: Protein kinase C alpha type (Homo sapiens, UniProt P17252); format: cell-based; details: sf9;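 further: inhibition of PKCalpha kinase activity measured in an enzyme assay with histone as the phosphorylation substrate; in other assays of this panel Not Active means under 50% inhibition at 10 µM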
[3] = DRUGMATRIX: Serotonin (5-Hydroxytryptamine) 5-HT3 radioligand binding (ligand: [3H] GR-65630); format: cell membranes, Membrane; details: hek293; Not Active = under 50% inhibition at 10 µM
[4] = DRUGMATRIX: Sigma2 radioligand binding (ligand: [3H] Ifenprodil); format: cell membranes, Rattus norvegicus, Wistar, Brain, Membrane; details: Not Active = under 50% inhibition at 10 µM
[5] = biological target: Beta-2 adrenergic receptor (Homo sapiens, UniProt P07550); assay: DRUGMATRIX: Adrenergic beta2 radioligand binding (ligand: [3H] CGP-12177); format: cell membranes, CHO, Membrane; details: cho; Not Active = under 50% inhibition at 10 µM
[6] = biological target: T1, Alpha-1A adrenergic receptor (Rattus norvegicus, UniProt P43140); assay: DRUGMATRIX: Alpha-1A adrenergic receptor radioligand binding (ligand: prazosin); format: cell membranes, Wistar, Submaxillary gland, Membrane; details: Not Active = under 50% inhibition at 10 µM
T1 sequence (P43140 whole entry): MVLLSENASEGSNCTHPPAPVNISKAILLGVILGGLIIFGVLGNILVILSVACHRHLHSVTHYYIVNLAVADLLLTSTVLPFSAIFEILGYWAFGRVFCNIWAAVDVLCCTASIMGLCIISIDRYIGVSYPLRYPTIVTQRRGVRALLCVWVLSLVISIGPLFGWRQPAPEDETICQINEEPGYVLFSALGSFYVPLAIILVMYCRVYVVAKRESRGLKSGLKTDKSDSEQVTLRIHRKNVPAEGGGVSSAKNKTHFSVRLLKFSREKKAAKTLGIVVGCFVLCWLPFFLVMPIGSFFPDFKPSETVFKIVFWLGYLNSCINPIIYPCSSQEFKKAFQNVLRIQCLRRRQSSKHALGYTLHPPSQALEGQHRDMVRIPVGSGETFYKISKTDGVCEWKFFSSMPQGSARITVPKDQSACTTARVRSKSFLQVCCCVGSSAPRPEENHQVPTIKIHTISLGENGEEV

D(4) dopamine receptor = biological target: T2, D(4) dopamine receptor (Homo sapiens, UniProt P21917); assay: DRUGMATRIX: Dopamine D4.2 radioligand binding (ligand: [3H] Spiperone); format: cell membranes, CHO-K1, Membrane; details: cho-k1; Not Active = under 50% inhibition at 10 µM
T2 sequence (P21917 whole entry): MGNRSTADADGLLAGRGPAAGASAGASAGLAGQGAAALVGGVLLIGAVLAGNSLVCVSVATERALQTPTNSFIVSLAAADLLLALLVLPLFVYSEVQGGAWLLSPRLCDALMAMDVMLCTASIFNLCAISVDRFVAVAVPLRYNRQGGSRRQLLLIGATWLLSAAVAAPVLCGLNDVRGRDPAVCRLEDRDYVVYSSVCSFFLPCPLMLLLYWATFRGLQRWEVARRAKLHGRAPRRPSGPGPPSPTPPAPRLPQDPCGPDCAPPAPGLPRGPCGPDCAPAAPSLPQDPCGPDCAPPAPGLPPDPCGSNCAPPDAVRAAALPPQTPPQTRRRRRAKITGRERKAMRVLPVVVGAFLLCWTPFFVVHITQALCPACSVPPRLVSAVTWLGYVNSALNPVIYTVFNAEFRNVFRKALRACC

Vascular endothelial growth factor receptor 1, sequence (P17948 whole entry): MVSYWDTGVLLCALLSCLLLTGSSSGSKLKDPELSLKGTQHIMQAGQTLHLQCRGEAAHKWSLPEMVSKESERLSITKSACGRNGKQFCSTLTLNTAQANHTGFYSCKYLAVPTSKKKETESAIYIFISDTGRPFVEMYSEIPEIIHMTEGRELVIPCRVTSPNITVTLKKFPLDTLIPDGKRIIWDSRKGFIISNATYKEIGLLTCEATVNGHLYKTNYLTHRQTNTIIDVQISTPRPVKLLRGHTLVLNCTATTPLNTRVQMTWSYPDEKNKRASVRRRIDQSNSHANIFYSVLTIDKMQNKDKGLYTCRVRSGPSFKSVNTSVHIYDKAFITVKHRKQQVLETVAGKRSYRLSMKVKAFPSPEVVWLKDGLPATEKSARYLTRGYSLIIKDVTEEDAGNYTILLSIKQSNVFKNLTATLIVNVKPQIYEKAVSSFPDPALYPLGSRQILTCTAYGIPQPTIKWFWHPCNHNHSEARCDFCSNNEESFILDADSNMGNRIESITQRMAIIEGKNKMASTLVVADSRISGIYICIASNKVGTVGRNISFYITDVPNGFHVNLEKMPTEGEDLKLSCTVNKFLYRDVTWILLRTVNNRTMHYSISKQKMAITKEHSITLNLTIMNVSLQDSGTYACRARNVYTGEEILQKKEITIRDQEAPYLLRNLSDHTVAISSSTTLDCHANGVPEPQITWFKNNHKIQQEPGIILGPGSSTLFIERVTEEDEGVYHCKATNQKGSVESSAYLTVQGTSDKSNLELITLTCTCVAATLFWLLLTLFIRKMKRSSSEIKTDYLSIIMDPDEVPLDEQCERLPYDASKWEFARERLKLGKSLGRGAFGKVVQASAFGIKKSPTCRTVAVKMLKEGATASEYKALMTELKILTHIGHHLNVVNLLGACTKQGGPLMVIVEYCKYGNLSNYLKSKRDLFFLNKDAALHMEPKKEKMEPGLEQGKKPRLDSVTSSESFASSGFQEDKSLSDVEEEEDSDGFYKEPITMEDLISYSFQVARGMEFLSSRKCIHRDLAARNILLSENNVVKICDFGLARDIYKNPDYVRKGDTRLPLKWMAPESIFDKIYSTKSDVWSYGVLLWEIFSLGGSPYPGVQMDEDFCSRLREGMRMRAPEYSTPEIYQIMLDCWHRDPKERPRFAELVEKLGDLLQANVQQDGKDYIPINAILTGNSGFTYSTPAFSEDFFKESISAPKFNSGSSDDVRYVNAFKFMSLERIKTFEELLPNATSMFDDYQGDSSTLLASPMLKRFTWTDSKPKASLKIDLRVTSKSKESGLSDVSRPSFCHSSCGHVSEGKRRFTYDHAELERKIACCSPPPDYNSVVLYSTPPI

C[C@]12C=CC(=O)C=C1CC[C@H]1[C@@H]3C[C@@H](O)[C@](O)(C(=O)CO)[C@@]3(C)C[C@H](O)[C@@]12F [TRIAMCINOLONE]
Not Active: IC50 [1] | IC50 [2] | IC50 [3] | Ki [3] | IC50 [4] | Ki [4] | IC50 [5] | IC50 [6] | IC50 (D(4) dopamine receptor)

CC[C@]1(O)C[C@@H]2CN(CCc3c([nH]c4ccccc34)[C@@](C(=O)OC)(c3cc4c(cc3OC)N(C)[C@H]3[C@@](O)(C(N)=O)[C@H](O)[C@]5(CC)C=CCN6CC[C@]43[C@@H]65)C2)C1 [VINDESINE]
Not Active: IC50 [1] | IC50 [2] | IC50 [3] | Ki [3] | IC50 [4] | Ki [4] | IC50 [5] | IC50 [6] | IC50 (D(4) dopamine receptor)

CCN(C(C)=O)c1cccc(-c2ccnc3c(C#N)cnn23)c1 [ZALEPLON]
Not Active: IC50 [1] | IC50 [2] | IC50 [3] | Ki [3] | IC50 [4] | Ki [4] | IC50 [5] | IC50 [6] | IC50 (D(4) dopamine receptor)

COBALTOUS CHLORIDE
Not Active: IC50 [1] | Ki [1] | IC50 [2] | Ki [2] | IC50 [3] | Ki [3] | IC50 [4] | Ki [4] | IC50 [5] | Ki [5] | IC50 [6] | Ki [6] | IC50 (D(4) dopamine receptor) | Ki (D(4) dopamine receptor)

COLISTIN
Not Active: IC50 [1] | Ki [1] | IC50 [2] | Ki [2] | IC50 [3] | Ki [3] | IC50 [4] | Ki [4] | IC50 [5] | Ki [5] | IC50 [6] | Ki [6] | IC50 (D(4) dopamine receptor) | Ki (D(4) dopamine receptor)
